Reference: patent publication US11072630B2, “Fluorinated and alkylated bile acids” (Metselex, Inc., priority 2015, dated 2021)

Tests used:
primary rat hepatocytes [1] = assay: DCA-induced cytotoxicity, LDH release assay; conditions: for inhibition of DCA-induced LDH release: 100 μM bile acid, 50 μM DCA
Protocol: (§1) Primary rat hepatocytes were incubated with 100 μM UDCA, methylated UDCA, or no addition (control) for 12 h. Cells were then exposed to 50 μM DCA for 40 h before processing for cytotoxicity activity, including LDH (top), and adenylate kinase (middle) assays, and cell viability (bottom).
(§2) Briefly, rats were anesthetized with phenobarbital sodium (100 mg/kg body weight) injected into the peritoneal cavity. After administration of heparin (200 units/kg body weight) in the tail vein, the abdomen was opened and the portal vein exposed and cannulated. The liver was then perfused at 37° C. in situ with a calcium-free Hanks' Balanced Salt Solution (HBSS) for 10 min, and then with 0.05% collagenase type IV in calcium-present HBSS for another 10 min.
Hepatocyte suspensions were obtained by passing collagenase-digested livers through 125 μm gauze and washing cells in Complete William's E medium (William's E medium, Sigma-Aldrich Corp., St Louis, Mo., USA) supplemented with 26 mM sodium bicarbonate, 23 mM HEPES, 0.01 units/mL insulin, 2 mM L-glutamine, 10 nM dexamethasone, 100 units/mL penicillin, and 10% heat-inactivated fetal bovine serum (Invitrogen Corp., Carlsbad, Calif., USA). Viable primary rat hepatocytes were enriched by low-speed centrifugation at 200 g for 3 min. Cell viability was determined by trypan blue exclusion and was typically 80-85%. After isolation, hepatocytes were ressuspended in Complete William's E medium and plated on Primaria™ tissue culture dishes (BD Biosciences, San Jose, Calif., USA) at 5×10^4 cells/cm2.
Cells were maintained at 37° C. in a humidified atmosphere of 5% CO2 for 6 h, to allow attachment. […]
General cell death or cytotoxicity was evaluated using the lactate dehydrogenase (LDH) Cytotoxicity Detection KitPLUS (Roche Diagnostics GmbH, Mannheim, Germany), following the manufacturer's instructions. […] Finally, absorbance was measured at 490 nm, with 620 nm as reference, using a Bio-Rad model 680 microplate reader (Bio-Rad Laboratories, Hercules, Calif., USA).

primary rat hepatocytes [2] = assay: TGF-β1-induced loss of cell viability (MTS activity); format: cell-based; conditions: 100 μM for 12 h, then 1 nM TGF-β1 for 36 h
Protocol: FIG. 5. […] Primary rat hepatocytes were pre-incubated with 100 μM methylated UDCA, or no addition (control) for 12 h. Cells were then exposed to 1 nM TGF-β1 for 36 h before processing for MTS activity.

primary rat hepatocytes [3] = assay: DCA-induced loss of cell viability (CellTiter-Fluor Cell Viability Assay); format: cell-based; conditions: pretreatment with 100 μM bile acid, 50 μM DCA
Protocol: as §1
(§3) Briefly, rats were anesthetized with phenobarbital sodium (100 mg/kg body weight) injected into the peritoneal cavity. After administration of heparin (200 units/kg body weight) in the tail vein, the abdomen was opened and the portal vein exposed and cannulated. […]
(§4) Hepatocyte suspensions were obtained by passing collagenase-digested livers through 125 μm gauze and washing cells in Complete William's E medium (William's E medium, Sigma-Aldrich Corp., St Louis, Mo., USA) supplemented with 26 mM sodium bicarbonate, 23 mM HEPES, 0.01 units/mL insulin, 2 mM L-glutamine, 10 nM dexamethasone, 100 units/mL penicillin, and 10% heat-inactivated fetal bovine serum (Invitrogen Corp., Carlsbad, Calif., USA). […] Cell viability was determined by trypan blue exclusion and was typically 80-85%. […]
(§5) General cell death was also determined using a bioluminescent cytolysis assay, designed to measure the release of adenylate kinase (AK) enzyme from damaged cells (ToxiLight™ BioAssay Kit, Lonza). […]

primary rat hepatocytes [4] = assay: Cell viability with the bile acids alone in primary cultures of rat hepatocytes; format: cell-based; conditions: bile acid alone
Protocol: as §2
Hepatocyte suspensions were obtained by passing collagenase-digested livers through 125 μm gauze and washing cells in Complete William's E medium (William's E medium, Sigma-Aldrich Corp., St Louis, Mo., USA) supplemented with 26 mM sodium bicarbonate, 23 mM HEPES, 0.01 units/mL insulin, 2 mM L-glutamine, 10 nM dexamethasone, 100 units/mL penicillin, and 10% heat-inactivated fetal bovine serum (Invitrogen Corp., Carlsbad, Calif., USA). Viable primary rat hepatocytes were enriched by low-speed centrifugation at 200 g for 3 min. Cell viability was determined by trypan blue exclusion and was typically 80-85%. […]
General cell death was also determined using a bioluminescent cytolysis assay, designed to measure the release of adenylate kinase (AK) enzyme from damaged cells (ToxiLight™ BioAssay Kit, Lonza). […] The absorbance of the formazan at 490 nm can be measured directly from 96-well assay plates without additional processing. […]

primary rat hepatocytes [5] = assay: Cytotoxicity of the bile acids alone in primary cultures of rat hepatocytes; conditions: bile acid alone
From the text: MTS is bioreduced by cells into a formazan product that is soluble in tissue culture medium. […] The quantity of formazan product as measured by the amount of 490 nm absorbance is directly proportional to the number of living cells in culture.

primary rat hepatocytes [6] = assay: DCA-induced cytotoxicity, adenylate kinase release (ToxiLight Assay); format: cell-based; conditions: 100 μM bile acid, cells exposed to 50 μM DCA
Protocol: as §1, §3, §4, §5

C[C@H](CCC(=O)O)[C@H]1CC[C@H]2[C@@H]3[C@@H](O)C[C@@H]4C[C@H](O)CC[C@]4(C)[C@H]3CC[C@]12C [UDCA, ursodeoxycholic acid, reference compound]
inhibition of DCA-induced LDH release (primary rat hepatocytes [1]): ~70%

CO[C@H]1C[C@@H]2C[C@H](O)CC[C@]2(C)[C@H]2CC[C@]3(C)[C@@H]([C@H](C)CCC(=O)O)CC[C@H]3[C@H]12 [methylated UDCA, 3α-hydroxy,7β-methoxy-5β-cholan-24-oic acid]
inhibition of DCA-induced LDH release (primary rat hepatocytes [1]): ~70% | prevention of DCA-induced cytotoxicity (FIG. 4 legend) (primary rat hepatocytes [1]; 100 μM for 12 h, then 50 μM DCA for 40 h, LDH and adenylate kinase assays): prevents DCA-induced cytotoxicity | inhibition of TGF-β1-induced reduction in MTT metabolism / loss of cell viability (primary rat hepatocytes [2]): effective at inhibiting TGF-β1-induced reduction in MTT metabolism | inhibition of TGF-β1-induced reduction in MTT metabolism / loss of cell viability (primary rat hepatocytes [2]; listed as Methylated UDCA): prevents TGF-β1-induced loss of cell viability | rescue of cell viability in cells exposed to DCA (primary rat hepatocytes [3]): effective at rescuing cell viability | cell viability (primary rat hepatocytes [4]; from 10 to 100 μM concentrations): tended to increase cell viability | viability (primary rat hepatocytes [4]; highest bile acid concentrations (200 and 400 μM)): decreased viability | cytotoxicity (primary rat hepatocytes [5]; 200 and 400 μM concentrations): an increase in cytotoxicity was evident | cytotoxicity (primary rat hepatocytes [5]; concentrations up to 100 μM): remained largely unchanged | protection against DCA-induced adenylate kinase release (ToxiLight Assay) (primary rat hepatocytes [6]): slightly better protection
